Data as given in ChEMBL document CHEMBL4145506, “Synthesis and biological evaluation of 4,6-diphenyl-2-(1H-pyrrol-1-yl)nicotinonitrile analogues of crolibulin and combretastatin A-4” (Eur J Med Chem, 2018).
Activity calls are given as the source filed them. No cut-off for these calls is given here.

Experiments:
[1] = tested on: NCI-H460; assay: Antiproliferative activity against human H460 cells after 72 hrs by MTT assay; type: functional, cell-based; conditions: NCI-H460, 72 h
[2] = tested on: SMMC-7721; assay: Antiproliferative activity against human SMMC7721 cells after 72 hrs by MTT assay; type: functional, cell-based; conditions: SMMC-7721, 72 h
[3] = tested on: HT-29; assay: cells; conditions: Homo sapiens, HT-29, 72 h
[4] = tested on: A549; assay: cells; conditions: Homo sapiens, A549, 72 h
Description: Antiproliferative activity against human A549 cells after 72 hrs by MTT assay

[5] = tested on: MKN-45; assay: cells; conditions: Homo sapiens, MKN-45, 72 h
Description: Antiproliferative activity against human MKN45 cells after 72 hrs by MTT assay

[6] = tested on: A549; assay: Induction of microtubule depolymerization in human A549 cells assessed as scattered short microtubule fragment formation in cytoplasm at 30 nM after 24 hrs by DAPI staining based immunofluorescence microscopic method; type: cell-based
[7] = tested on: HT-29; assay: Potency index, ratio of crolibulin IC50 to compound IC50 for human HT-29 cells; type: functional
[8] = tested on: NCI-H460; assay: Potency index, ratio of CA-4 IC50 to compound IC50 for human H460 cells; type: functional
[9] = tested on: A549; assay: Potency index, ratio of CA-4 IC50 to compound IC50 for human A549 cells; type: functional
[10] = tested on: A549; assay: Potency index, ratio of crolibulin IC50 to compound IC50 for human A549 cells; type: functional

| IC50 [1] | IC50 [2] | IC50 [3] | IC50 [4] | IC50 [5] | Structure (SMILES) | Activity [6] | Ratio IC50 [7] | Ratio IC50 [8] | Ratio IC50 [9] | Ratio IC50 [10] |
| --- | --- | --- | --- | --- | --- | --- | --- | --- | --- | --- |
| 260 nM | 12.1 µM | 60 nM | 14.4 µM | 38.3 µM | CNCc1cccn1-c1nc(-c2ccc(F)cc2)cc(-c2ccc(OC)c(OC)c2OC)c1C#N | – | – | – | – | – |
| 50 nM | 4.35 µM | – | – | – | COc1cc(-c2cc(-c3ccc(F)cc3)nc(-n3cccc3CN3CCN(C)CC3)c2C#N)cc(OC)c1OC | – | – | – | – | – |
| 3880 nM | 47.4 µM | 1370 nM | 6.95 µM | 46.2 µM | COc1ccc(-c2cc(-c3ccc(F)cc3)nc(-n3cccc3CN3CCC(C)CC3)c2C#N)c(OC)c1OC | – | – | – | – | – |
| 110 nM | 18.2 µM | 60 nM | 4.55 µM | 10.1 µM | COc1ccc(-c2cc(-c3ccc(F)cc3)nc(-n3cccc3CN3CCN(C)CC3)c2C#N)c(OC)c1OC | – | – | – | – | – |
| 70 nM | 5.87 µM | – | – | – | COc1cc(-c2cc(-c3ccc(F)cc3)nc(-n3cccc3CN3CCC(C)CC3)c2C#N)cc(OC)c1OC | – | – | – | – | – |
| 8310 nM | 36.8 µM | 1200 nM | 11 µM | 35.8 µM | COc1cc(-c2cc(-c3ccc(F)cc3)nc(-n3cccc3CN3CCCC3)c2C#N)cc(OC)c1OC | – | – | – | – | – |
| 4530 nM | 33.9 µM | 1770 nM | 4.72 µM | 39.8 µM | COc1cc(-c2cc(-c3ccc(F)cc3F)nc(-n3cccc3CN3CCN(C)CC3)c2C#N)cc(OC)c1OC | – | – | – | – | – |
| 5770 nM | 2.36 µM | 3710 nM | 12.6 µM | 45.3 µM | COc1ccc(-c2cc(-c3ccc(F)cc3)nc(-n3cccc3CN(C)C)c2C#N)c(OC)c1OC | – | – | – | – | – |

The next lines start with the compound.

| Structure (SMILES) | IC50 [1] | IC50 [2] | IC50 [3] | IC50 [4] | IC50 [5] | Activity [6] | Ratio IC50 [7] | Ratio IC50 [8] | Ratio IC50 [9] | Ratio IC50 [10] |
| --- | --- | --- | --- | --- | --- | --- | --- | --- | --- | --- |
| COc1cc(-c2cc(-c3ccc(F)cc3)nc(-n3cccc3CN(C)C)c2C#N)cc(OC)c1OC | 310 nM | 20.9 µM | 100 nM | 0.17 µM | 10.4 µM | – | – | – | – | – |
| COc1cc(-c2cc(-c3ccc(F)cc3)nc(-n3cccc3CN3CCOCC3)c2C#N)cc(OC)c1OC | 5560 nM | 18.8 µM | – | – | – | – | – | – | – | – |
| COc1ccc(/C=C\c2cc(OC)c(OC)c(OC)c2)cc1O [COMBRETASTATIN A4] | 80 nM | 1.72 µM | 60 nM | 0.45 µM | 0.21 µM | Active | – | – | – | – |
| CNCc1cccn1-c1nc(-c2ccc(F)cc2F)cc(-c2cc(OC)c(OC)c(OC)c2)c1C#N | 2980 nM | 33.4 µM | 950 nM | 9.54 µM | 6.29 µM | – | – | – | – | – |
| CNCc1cccn1-c1nc(-c2ccc(F)cc2)cc(-c2cc(OC)c(OC)c(OC)c2)c1C#N | 60 nM | 2.95 µM | 80 nM | 0.03 µM | 2.22 µM | Active | 6.9 - 13 | 1.3 - 15 | 1.3 - 15 | 6.9 - 13 |
| COc1cc(-c2cc(-c3ccc(F)cc3)nc(-n3cccc3)c2C#N)cc(OC)c1OC | 21300 nM | 61.1 µM | 9340 nM | 44.1 µM | 58.5 µM | – | – | – | – | – |
| COc1cc([C@H]2C(C#N)=C(N)Oc3c2ccc(N)c3N)cc(Br)c1OC [CROLIBULIN] | 30 nM | – | 550 nM | 0.39 µM | 0.17 µM | – | – | – | – | – |
| COc1cc(-c2cc(-c3ccc(F)cc3)nc(-n3cccc3CNC(C)C)c2C#N)cc(OC)c1OC | 240 nM | 34.9 µM | 100 nM | 8.26 µM | 38.5 µM | – | – | – | – | – |
| COc1cc(-c2cc(-c3ccc(F)cc3F)nc(-n3cccc3CNC(C)C)c2C#N)cc(OC)c1OC | 4370 nM | 21.9 µM | 2780 nM | 16 µM | 57.5 µM | – | – | – | – | – |
| COc1cc(-c2cc(-c3ccc(F)cc3F)nc(-n3cccc3CN(C)C)c2C#N)cc(OC)c1OC | 6180 nM | 11.7 µM | 2510 nM | 10.7 µM | 7.28 µM | – | – | – | – | – |
| CCNCc1cccn1-c1nc(-c2ccc(F)cc2F)cc(-c2cc(OC)c(OC)c(OC)c2)c1C#N | 2880 nM | 4.2 µM | 3300 nM | 4.12 µM | 13.2 µM | – | – | – | – | – |
| COc1cc(-c2cc(-c3ccc(F)cc3F)nc(-n3cccc3CN3CCC(C)CC3)c2C#N)cc(OC)c1OC | 5300 nM | 7.73 µM | 8760 nM | 8.07 µM | 5.91 µM | – | – | – | – | – |
| COc1cc(-c2cc(-c3ccc(F)cc3F)nc(-n3cccc3CN3CCCC3)c2C#N)cc(OC)c1OC | 4290 nM | 40.3 µM | 5860 nM | 10.8 µM | 43.1 µM | – | – | – | – | – |
| COc1cc(-c2cc(-c3ccc(F)cc3F)nc(-n3cccc3CN3CCOCC3)c2C#N)cc(OC)c1OC | 12500 nM | 40.8 µM | 6340 nM | 11 µM | 39.7 µM | – | – | – | – | – |
| CCNCc1cccn1-c1nc(-c2ccc(F)cc2)cc(-c2cc(OC)c(OC)c(OC)c2)c1C#N | 1540 nM | 13.1 µM | 1210 nM | 16.9 µM | 42.2 µM | – | – | – | – | – |
